Source: publication PMC7253423, “Quassinoid analogs with enhanced efficacy for treatment of hematologic malignancies target the PI3Kγ isoform” (Communications Biology, 2020)
Where “and” joins values, the source holds several entries; their conditions need not be identical. Equal entries are not always repeated. Where two headings read alike, the source gives them in different places.

Tests used:
[1] = Cytotoxicity, cell viability assay in normal cells; assay type: cell-based; conditions: human, fraction of 0 μM control; for viability at 0.000244141 μM: Con. 0.000244141 μM; for viability at 0.015625 μM: Con. 0.015625 μM; for viability at 0.0625 μM: Con. 0.0625 μM; for viability at 1 μM: Con. 1 μM
PI3Kγ = target: T1, PI3Kγ (Homo sapiens, UniProt P48736); experiment: Competitive binding pull-down assay in SU-DHL-4 cell lysates, western blot; conditions: SU-DHL-4 lysates, 51048 together with parent Brusatol
T1 construct: endogenous in cells; host or cells: SU-DHL-4 cells (lysate)
Description: Thirty microgram of purified GST-tagged proteins were pre-cleared with Dynabeads M-280 Streptavidin (Invitrogen, Carlsbad, CA, USA). […] The complexes were harvested and washed with PBS. The collected beads were mixed with SDS loading buffer for further analysis.
Western blot analyses were performed as previously described. Briefly, total cell lysates were separated by SDS-PAGE gel and transferred to nitrocellulose membrane. The membranes were blocked with 5% non-fat milk, probed with specific antibodies, and visualized using the Odyssey scanner (LiCor Inc., Lincoln, NE).

K562 cells [2] = experiment: Cell cycle assay (PI staining, flow cytometry); assay type: cell-based, human; conditions: K562, 100 nM, 48 h
Description: (§1) Five million cells were harvested, fixed with 80% ethanol for 2 h or overnight at −20 °C, then washed with PBS and incubated with Propidium iodide (PI) staining buffer (0.5 mg/ml propidium iodide in PBS with 50 μg/ml RNase A) for 30 min at room temperature. The stained cells were resuspended in PBS and analyzed on a FACSCalibur system (Becton Dickinson, San Jose, CA, USA) using FlowJo software (TreeStar, San Carlos, CA, USA).

SU-DHL-4 cells = experiment: Cell cycle assay (PI staining, flow cytometry); assay type: cell-based, human; conditions: SU-DHL-4, 100 nM, 48 h
Description: as §1

Raji cells = experiment: Cell cycle assay (PI staining, flow cytometry); assay type: cell-based, human; conditions: 100 nM, 48 h
Description: as §1

HL-60 cells = experiment: Cell cycle assay (PI staining, flow cytometry); assay type: cell-based, human; conditions: HL-60, 100 nM, 48 h
Description: as §1

LCL1 cells [3] = experiment: Cell viability assay (CellTiter-Glo luminescence); assay type: cell-based, human; conditions: 72 h, duplicates
Description: After treatment, the cells were incubated with 100 μl buffer for 10 min at room temperature following the instructions of CellTiter-Glo kit (Promega, Madison, WI). Luminescence was detected using a multi-mode reader Cytation 5 (BioTek, Winooski, VT). […] Two independent experiments done in duplicates were performed.

[4] = test system: PDX-255 (Burkitt's lymphoma); experiment: Cell viability assay in patient-derived xenograft cells; assay type: cell-based, human; conditions: PDX-255, different concentrations, 72 h
Description: (§2) 5000 cells as indicated were cultured in 96-well plate with 100 μl of media. On the next day, Brusatol or associated analogs were added once to the cells without media change. After treatment, the cells were incubated with 100 μl buffer for 10 min at room temperature following the instructions of CellTiter-Glo kit (Promega, Madison, WI). Luminescence was detected using a multi-mode reader Cytation 5 (BioTek, Winooski, VT). […] Two independent experiments done in duplicates were performed.

[5] = test system: PDX-129 (B-cell Follicular lymphoma); experiment: as above; assay type: cell-based, human; conditions: PDX-129, different concentrations, 72 h
Description: as §2

[6] = test system: PDX-223 (Diffuse large B cell lymphoma); experiment: as above; assay type: cell-based, human; conditions: PDX-223, different concentrations, 72 h
Description: as §2

LCL1 cells [7] = experiment: RNA-Seq and Ingenuity Pathway Analysis (upstream regulator analysis); assay type: cell-based, human
Description: The cDNA library was prepared with the commercial Illumina library preparation kits (TruSeq Stranded RNA LT Ribo-Zero H/M/R Kit) according to the manufacturer’s protocols and sequenced with an Illumina HiSeq2000 instrument (Washington University Genome Sequencing Center). Quality check was performed on the raw RNA-Seq reads (FastQC, https://www.bioinformatics.babraham.ac.uk/projects/fastqc/), and the adapters were cut (Trim Galore, https://www.bioinformatics.babraham.ac.uk/projects/trim_galore/) and mapped with hg38 genome (HISAT2)[64]. Differentially expressed transcripts were defined with Cuffdiff tools[65] and visualized using R software (https://www.r-project.org/). Signaling pathway analysis was conducted with the Ingenuity Pathway Analysis program (QIAGEN Inc., https://www.qiagenbioinformatics.com/products/ingenuitypathway-analysis)[27].

K562 cells [8] = experiment: Cell viability assay (CellTiter-Glo luminescence); assay type: cell-based, human; conditions: K562, 100nM, 72 hours
Description: 5000 cells as indicated were cultured in 96-well plate with 100 μl of media. […] After treatment, the cells were incubated with 100 μl buffer for 10 min at room temperature following the instructions of CellTiter-Glo kit (Promega, Madison, WI). Luminescence was detected using a multi-mode reader Cytation 5 (BioTek, Winooski, VT). […] Two independent experiments done in duplicates were performed.

[9] = B-cells, read-out: relative cell viability (Fig 6c), replicates
[10] = T-cells, read-out: relative cell viability (Fig 6b), replicates
[11] = Brusatol-treated LCL1 cells, RNA-Seq, IPA

T1 sequence (P48736 whole entry): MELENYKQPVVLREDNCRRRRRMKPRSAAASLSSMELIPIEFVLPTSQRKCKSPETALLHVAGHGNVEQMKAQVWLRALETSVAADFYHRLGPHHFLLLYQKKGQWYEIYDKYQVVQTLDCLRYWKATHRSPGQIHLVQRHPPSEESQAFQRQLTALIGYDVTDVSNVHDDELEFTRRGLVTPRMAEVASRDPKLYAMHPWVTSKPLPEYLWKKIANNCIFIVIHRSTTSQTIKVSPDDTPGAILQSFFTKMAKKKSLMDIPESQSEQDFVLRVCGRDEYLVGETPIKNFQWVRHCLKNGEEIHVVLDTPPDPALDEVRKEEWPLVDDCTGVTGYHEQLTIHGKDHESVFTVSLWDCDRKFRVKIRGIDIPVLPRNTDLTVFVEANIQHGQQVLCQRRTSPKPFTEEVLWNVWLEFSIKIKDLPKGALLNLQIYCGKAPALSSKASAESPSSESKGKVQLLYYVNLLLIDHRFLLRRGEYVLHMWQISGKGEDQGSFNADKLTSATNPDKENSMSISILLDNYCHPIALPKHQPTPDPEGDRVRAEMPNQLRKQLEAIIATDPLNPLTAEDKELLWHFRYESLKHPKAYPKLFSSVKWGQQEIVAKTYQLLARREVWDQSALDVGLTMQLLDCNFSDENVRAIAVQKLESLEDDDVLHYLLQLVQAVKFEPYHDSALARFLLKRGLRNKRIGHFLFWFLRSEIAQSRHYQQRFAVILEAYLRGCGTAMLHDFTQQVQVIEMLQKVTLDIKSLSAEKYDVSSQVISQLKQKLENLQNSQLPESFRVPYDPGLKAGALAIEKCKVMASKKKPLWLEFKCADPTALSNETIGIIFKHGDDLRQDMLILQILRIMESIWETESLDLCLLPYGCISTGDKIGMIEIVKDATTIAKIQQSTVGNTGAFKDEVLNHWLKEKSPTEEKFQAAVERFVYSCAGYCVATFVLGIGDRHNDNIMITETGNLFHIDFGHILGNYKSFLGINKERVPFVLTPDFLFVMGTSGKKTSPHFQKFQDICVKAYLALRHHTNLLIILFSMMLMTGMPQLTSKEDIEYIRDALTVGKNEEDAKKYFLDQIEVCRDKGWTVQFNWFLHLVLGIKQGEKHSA

## COC(=O)C12OCC34C(CC5C(C)=C(OC(=O)CNC(=O)OC(C)(C)C)C(=O)CC5(C)C3C(O)C1O)OC(=O)C(OC(=O)C=C(C)C)C24 (stereo not drawn) [#15]
[1]; [9]
  viability at 0.000244141 μM: 80.4%
  viability at 0.015625 μM: 100%
  viability at 0.0625 μM: 89.1%
  viability at 1 μM: 91.6%
[1]; B-cells, Con. 0.00390625 μM, read-out: relative cell viability (Fig 6c), replicates
  viability at 0.00390625 μM: 96.8%
[1]; [10]
  viability at 0.000244141 μM: 101%
  viability at 0.015625 μM: 83.4%
  viability at 0.0625 μM: 82.3%
  viability at 1 μM: 83.3%

## Brusatol
PI3Kγ
  binding of 51048 with PI3Kγ in the presence of competitor: reduced
K562 cells [2]
  Sub-G1 population: 3.19%
SU-DHL-4 cells
  Sub-G1 population: 67.9%
Raji cells
  Sub-G1 population: 68.4%
HL-60 cells
  Sub-G1 population: 7.63%
LCL1 cells [3]; LCL1, cell number 0, 100 nM
  Cell viability (luminescence): 0.8054 and 1.195
LCL1 cells [3]; LCL1, cell number 625, 100 nM
  Cell viability (luminescence): 1.142 and 1.405
LCL1 cells [3]; LCL1, cell number 1250, 100 nM
  Cell viability (luminescence): 2.424 and 2.078
LCL1 cells [3]; LCL1, cell number 2500, 100 nM
  Cell viability (luminescence): 3.232 and 2.818
LCL1 cells [3]; LCL1, cell number 5000, 100 nM
  Cell viability (luminescence): 3.613 and 2.736
LCL1 cells [3]; LCL1, cell number 10000, 100 nM
  Cell viability (luminescence): 4.594 and 3.987
[4]
  inhibition of cell viability: inhibited
[5]
  inhibition of cell viability: inhibited
[6]
  inhibition of cell viability: inhibited
LCL1 cells [7]; [11]
  Expr Other, upstream regulator ALDH1A2: -1.404
  Expr Other, upstream regulator ARRB2: -0.306
  Expr Other, upstream regulator CBX5: -1.126
  Expr Other, upstream regulator CD22: 2.89
  Expr Other, upstream regulator CDC73: -0.568
  Expr Other, upstream regulator CYLD: -1.473
  Expr Other, upstream regulator DICER1: 1.146
  Expr Other, upstream regulator DNAJB6: 0.673
  Expr Other, upstream regulator FKBP4: 0.61
  Expr Other, upstream regulator GMNN: -1.679
  Expr Other, upstream regulator GRN: 0.925
  Expr Other, upstream regulator IFNGR1: 0.304
  Expr Other, upstream regulator KMT2D: -0.912
  Expr Other, upstream regulator NONO: 1.295
  Expr Other, upstream regulator PAX8: 1.9
  Expr Other, upstream regulator PTPRJ: -1.699
  Expr Other, upstream regulator RARRES3: 2.648
  Expr Other, upstream regulator SOD2: 1.251
  Expr Other, upstream regulator UPF2: -0.435
  Expr Other, upstream regulator WDR5: 0.395
  Expr Other, upstream regulator ZC3H12A: -1.316
LCL1 cells [7]; LCL1, 72 h
  CTNNA1 transcript (RNA-Seq): dramatically downregulated
  SLC22A1 transcript (RNA-Seq): highly upregulated
K562 cells [8]; experiment of Fig 3a
  killing: more than 90%
K562 cells [8]; independent experiment of Fig 3b
  killing: approximately 50%
